US9408856B2, “Topical steroidal formulations” (Temple University—Of The Commonwealth System of Higher …, priority 2008, dated 2016)

Legend:
[1] = system: dexamethasone-induced thymic and splenic atrophy; assay: Dexamethasone-induced thymic and splenic atrophy in mice; assay type: in vivo, CD-1 mice; parameters: Thymus wt / Spleen wt: unit not given here; settings: for Approximate Potency Compared to Fluasterone in Protecting Against DEX-induced Thymic and Splenic Involution: fluasterone = 1
Protocol: Administration of dehydroepiandrosterone (DHEA, 60 mg/kg, s.c.) for three days partially reverse thymic and splenic atrophy induced by a single injection of dexamethasone (1.6 mg/mouse). In this experiment, the efficacy of either 10 mg/kg or 20 mg/kg DHEA administered s.c. versus the effect of 10 mg/kg or 20 mg/kg fluasterone was investigated.
5% Cremophor (polyethoxylated castor oil; Sigma Chemicals)-95% saline vehicle was prepared using 95 mL of sterile 0.9% NaCl (filtered through sterile 0.22 micron filter) and 5 mL of Cremophor. The Cremophor was dissolved by swirling for approximately 5 minutes.
Dexamethasone solutions were prepared by dissolving dexamethasone (Sigma Chemicals) in absolute ethanol. For example, 71.9 mg of dexamethasone was dissolved in 2.9 mL of absolute ethanol. In order to prevent precipitation, the solution was kept on a hotplate between injections.
For the 10 mg/kg suspension, 25.7 mg of DHEA was weighed out, transferred to a glass scintillation vial, and 10.3 mL of the Cremophor-saline vehicle was added. The DHEA suspension was homogenized using a Tissumizer at 80% power for 30 sec. The Tissumizer was rinsed with 70% ethanol prior to homogenization. After the 10 mg/kg DHEA suspension was homogenized the probe was rinsed 2× with 50 mL of absolute ethanol, then with 50 mL of 70% ethanol, and then dried with sterile gauze. For the 20 mg/kg DHEA suspension, 50.9 mg DHEA was suspended in 10.2 mL of Cremophor-saline vehicle.
19.4 mg of fluasterone was weighed out and transferred to a glass scintillation vial. 7.8 mL of Cremophor-saline vehicle was added to the vial and the contents of the vial were homogenized with a Tissumizer as described previously. Prior to preparing the 20 mg/kg fluasterone, the probe was rinsed 2× with 50 mL of absolute ethanol and 1× with 50 mL of 70% ethanol. For the 20 mg/kg suspension, 47.0 mg was weighed out and transferred to a glass scintillation vial. 9.4 mL of Cremophor-saline vehicle was added to the vial and the contents of the vial were homogenized with a Tissumizer as described above.
Female CD-1 mice, 43-45 days old, were obtained from Charles River Laboratories. The mice were housed 5 per cage in plastic shoebox cages with ad libitum access to Purina chow 5015 and water in the Pharmacy CAF with 12 hr of alternating light and darkness.
Prior to the experiment the mice were weighed, separated into 6 groups containing 5 mice each and treated as follows:
Mice were treated s.c. with 0.1 mL of 5% Cremophor-95% saline for three days. On the third day, the mice were also treated s.c. with 1.6 mg of dexamethasone dissolved in 0.06 mL of absolute. ethanol.
Mice were treated s.c. with 0.25 mg of DHEA suspended in 0.1 mL of 5% Cremophor-95% saline for three days. On the third day, the mice were also treated s.c. with 1.6 mg of dexamethasone dissolved in 0.06 mL of absolute ethanol.
Mice were treated s.c. with 0.5 mg of DHEA suspended in 0.1 mL of 5% Cremophor-95% saline for three days. On the third day, the mice were also treated s.c. with 1.6 mg of dexamethasone dissolved in 0.06 mL of absolute ethanol.
Mice were treated s.c. with 0.25 mg of fluasterone suspended in 0.1 mL of 5% Cremophor-95% saline for three days. On the third day, the mice were also treated s.c. with 1.6 mg of dexamethasone dissolved in 0.06 mL of absolute ethanol.
Mice were treated s.c. with 0.5 mg of fluasterone suspended in 0.1 mL of 5% Cremophor-95% saline for three days. On the third day, the mice were also treated s.c. with 1.6 mg of dexamethasone dissolved in 0.06 mL of absolute ethanol.
All s.c. injections were made in the nape. All mice were lightly anesthetized while the s.c. injections were done.
Twenty-four hours after dexamethasone treatment, the mice were euthanized by an overdose of isoflurane. The spleen and thymus were removed, cleaned of any adventitia, rinsed, blotted on filter paper, and weighed. […]

[2] = Fate of orally administered 14C-fluasterone
[3] = biological target: glucose 6-phosphate dehydrogenase (G6PDH) (Homo sapiens, UniProt P11413); settings: Schwartz et al., Cancer Res. 48:4817-4822, 1988; cited from earlier work
Chain of glucose 6-phosphate dehydrogenase (G6PDH) (P11413 whole entry): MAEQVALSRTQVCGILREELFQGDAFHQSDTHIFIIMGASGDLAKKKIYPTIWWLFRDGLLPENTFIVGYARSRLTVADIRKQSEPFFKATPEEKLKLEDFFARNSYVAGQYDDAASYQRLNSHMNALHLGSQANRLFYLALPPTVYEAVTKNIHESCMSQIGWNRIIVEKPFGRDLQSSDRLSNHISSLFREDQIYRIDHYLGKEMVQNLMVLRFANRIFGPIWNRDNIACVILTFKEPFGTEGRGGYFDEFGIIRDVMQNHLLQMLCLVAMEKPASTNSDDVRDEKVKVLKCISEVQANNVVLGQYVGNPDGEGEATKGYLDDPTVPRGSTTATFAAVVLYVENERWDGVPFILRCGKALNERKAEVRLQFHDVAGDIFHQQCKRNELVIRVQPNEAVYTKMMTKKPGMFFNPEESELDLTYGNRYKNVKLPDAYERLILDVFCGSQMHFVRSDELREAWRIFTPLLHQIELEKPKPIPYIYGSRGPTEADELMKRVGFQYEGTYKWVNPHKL

[4] = Table 15, steroid 10 mg/kg in Cremophor-saline + dexamethasone
[5] = Table 15, steroid 20 mg/kg in Cremophor-saline + dexamethasone
[6] = Table 16, steroid 20 mg/kg + dexamethasone
[7] = Table 16, steroid 60 mg/kg + dexamethasone
[8] = Table 16, steroid 5 mg/kg + dexamethasone
[9] = Table 16, steroid 10 mg/kg + dexamethasone
[10] = Table 16, steroid 40 mg/kg + dexamethasone

C[C@H]1CC[C@@]2(C)C(=CC[C@@H]3[C@@H]2CC[C@]2(C)C(=O)[C@H](F)C[C@@H]32)C1 [3β-methyl-16α-fluoro-5-androsten-17-one]
Spleen wt [1, 4]: 50.9 ± 7.5 | Spleen wt/BW [1, 4]: 2.0 ± 0.3 | Thymus wt [1, 4]: 43.8 ± 3.0 | Thymus wt/BW [1, 4]: 1.7 ± 0.1 | Spleen wt [1, 5]: 55.0 ± 4.6 | Spleen wt/BW [1, 5]: 2.2 ± 0.1 | Thymus wt [1, 5]: 55.8 ± 5.4 | Thymus wt/BW [1, 5]: 2.2 ± 0.2 | Approximate Potency Compared to Fluasterone in Protecting Against DEX-induced Thymic and Splenic Involution ([1]; mice): <½

C[C@H]1CC[C@@]2(C)C(=CC[C@@H]3[C@@H]2CC[C@]2(C)C(=O)CC[C@@H]32)C1 [3β-methyl-5-androsten-17-one]
Spleen wt [1, 4]: 70.7 + 4.5 | Spleen wt/BW [1, 4]: 2.9 + 0.2 | Thymus wt [1, 4]: 61.9 + 3.9 | Thymus wt/BW [1, 4]: 2.6 + 0.2 | Spleen wt [1, 5]: 67.0 ± 11.3 | Spleen wt/BW [1, 5]: 2.6 ± 0.2 | Thymus wt [1, 5]: 62.2 ± 4.1 | Thymus wt/BW [1, 5]: 2.4 ± 0.2 | Approximate Potency Compared to Fluasterone in Protecting Against DEX-induced Thymic and Splenic Involution ([1]; mice): slightly less active | rank of activity among steroids tested against DEX-induced thymic and splenic involution ([1]; mice): almost as great potency

C[C@H]1CC[C@@]2(C)C(=CC[C@@H]3[C@@H]2CC[C@]2(C)C(=O)[C@H](Cl)C[C@@H]32)C1 [3β-methyl-16α-chloro-5-androsten-17-one]
Spleen wt [1, 4]: 42.3 ± 5.6 | Spleen wt/BW [1, 4]: 1.6 ± 0.2 | Thymus wt [1, 4]: 31.7 ± 4.1 | Thymus wt/BW [1, 4]: 1.2 ± 0.1 | Spleen wt [1, 5]: 38.6 ± 6.3 | Spleen wt/BW [1, 5]: 1.2 ± 0.3 | Thymus wt [1, 5]: 28.6 ± 3.2 | Thymus wt/BW [1, 5]: 1.1 ± 0.1 | Approximate Potency Compared to Fluasterone in Protecting Against DEX-induced Thymic and Splenic Involution ([1]; mice): about ⅙ or considerably

C[C@]12CCCCC1=CC[C@@H]1[C@@H]2CC[C@]2(C)C(=O)[C@H](O)C[C@@H]12 [16α-hydroxy-5-androsten-17-one]
Body Weight [1, 6]: 25.4 ± 1.5 | Spleen wt [1, 6]: 46.6 ± 7.5 | Spleen wt/BW [1, 6]: 1.8 ± 0.2 | Thymus wt [1, 6]: 41.2 ± 1.3 | Thymus wt/BW [1, 6]: 1.6 ± 0.1 | Body Weight [1, 7]: 23.8 ± 0.8 | Spleen wt [1, 7]: 53.6 ± 6.3 | Spleen wt/BW [1, 7]: 2.2 ± 0.3 | Thymus wt [1, 7]: 45.9 ± 3.1 | Thymus wt/BW [1, 7]: 1.9 ± 0.2 | Approximate Potency Compared to Fluasterone in Protecting Against DEX-induced Thymic and Splenic Involution ([1]; mice): about 1/12

C[C@]12CCCCC1=CC[C@@H]1[C@@H]2CC[C@]2(C)C(=O)[C@H](F)C[C@@H]12 [^14C-Fluasterone]
metabolism after oral administration [2]: extensive first-pass hepatic and/or gastrointestinal metabolism

C[C@]12CC[C@H]3[C@@H](CC=C4CCCC[C@@]43C)[C@@H]1C[C@@H](F)[C@@H]2O [16α-fluoro-5-androsten-17β-ol]
Body Weight [1, 6]: 25.1 ± 1.0 | Spleen wt [1, 6]: 52.3 ± 10.8 | Spleen wt/BW [1, 6]: 2.1 ± 0.4 | Thymus wt [1, 6]: 42.3 ± 4.6 | Thymus wt/BW [1, 6]: 1.7 ± 0.2 | Body Weight [1, 7]: 25.7 ± 1.5 | Spleen wt [1, 7]: 45.9 ± 5.1 | Spleen wt/BW [1, 7]: 1.8 ± 0.2 | Thymus wt [1, 7]: 45.1 ± 5.1 | Thymus wt/BW [1, 7]: 1.8 ± 0.2 | Approximate Potency Compared to Fluasterone in Protecting Against DEX-induced Thymic and Splenic Involution ([1]; mice): < 1/12

C[C@H]1CC[C@@]2(C)C(=CC[C@@H]3[C@@H]2CC[C@]2(C)C(=O)[C@H](C)C[C@@H]32)C1 [3β-methyl-16α-methyl-5-androsten-17-one]
recovery from anesthesia (two mice of the group) ([1]; 20 mg/kg group, Example 9): never recovered from anesthesia | Spleen wt [1, 4]: 44.9 + 9.2 | Spleen wt/BW [1, 4]: 1.7 + 0.3 | Thymus wt [1, 4]: 42.6 + 4.7 | Thymus wt/BW [1, 4]: 1.7 + 0.2 | Spleen wt [1, 5]: 44.4 ± 8.7 | Spleen wt/BW [1, 5]: 1.8 ± 0.3 | Thymus wt [1, 5]: 37.7 ± 4.0 | Thymus wt/BW [1, 5]: 1.5 ± 0.2 | Approximate Potency Compared to Fluasterone in Protecting Against DEX-induced Thymic and Splenic Involution ([1]; mice): about ⅙

C[C@@H]1C[C@H]2[C@@H]3CCC4=CC(=O)C=C[C@]4(C)[C@@]3(F)[C@@H](O)C[C@]2(C)[C@@]1(O)C(=O)CO [DEXAMETHASONE, dexamethasone, reference compound]
Thymus wt ([1]; Table 12, dexamethasone 1.6 mg s.c. once after vehicle s.c. 3 days, 24 h after dexamethasone): 33.2 ± 1.3

C[C@]12CCCCC1=C[C@@H](O)[C@@H]1[C@@H]2CC[C@]2(C)C(=O)[C@H](F)C[C@@H]12 [7α-hydroxyfluasterone, 7α-hydroxy-16α-fluoro-5-androsten-17-one]
Body Weight [1, 8]: 24.5 ± 1.0 | Spleen wt [1, 8]: 46.3 ± 11.1 | Spleen wt/BW [1, 8]: 1.8 ± 0.5 | Thymus wt [1, 8]: 43.8 ± 6.9 | Thymus wt/BW [1, 8]: 1.8 ± 0.3 | Body Weight [1, 9]: 24.0 ± 1.3 | Spleen wt [1, 9]: 50.9 ± 12.5 | Spleen wt/BW [1, 9]: 2.1 ± 0.5 | Thymus wt [1, 9]: 54.8 ± 12.1 | Thymus wt/BW [1, 9]: 2.3 ± 0.4 | Approximate Potency Compared to Fluasterone in Protecting Against DEX-induced Thymic and Splenic Involution ([1]; mice): about ½

C[C@]12CCCC[C@@H]1CC[C@@H]1[C@@H]2CC[C@]2(C)C(=O)[C@H](F)C[C@@H]12 [compound 8356, 16α-fluoro-5α-androstan-17-one]
Body Weight [1, 6]: 25.2 ± 2.9 | Spleen wt [1, 6]: 54.0 ± 4.5 | Spleen wt/BW [1, 6]: 2.0 ± 0.3 | Thymus wt [1, 6]: 40.8 ± 5.8 | Thymus wt/BW [1, 6]: 1.6 ± 0.1 | Body Weight [1, 10]: 25.2 ± 1.4 | Spleen wt [1, 10]: 51.2 ± 3.0 | Spleen wt/BW [1, 10]: 2.0 ± 0.2 | Thymus wt [1, 10]: 54.4 ± 4.5 | Thymus wt/BW [1, 10]: 2.2 ± 0.2 | Approximate Potency Compared to Fluasterone in Protecting Against DEX-induced Thymic and Splenic Involution ([1]; mice): about ⅛ | G6PDH inhibition compared with fluasterone [3]: more potent G6PDH inhibitor than fluasterone

C[C@@H]1C[C@H]2[C@@H]3CC=C4CCCC[C@]4(C)[C@H]3CC[C@]2(C)C1=O [16α-methyl-5-androsten-17-one]
Body Weight [1, 4]: 25.3 ± 0.8 | Spleen wt [1, 4]: 37.8 ± 6.1 | Spleen wt/BW [1, 4]: 1.5 ± 0.3 | Thymus wt [1, 4]: 28.0 ± 1.7 | Thymus wt/BW [1, 4]: 1.1 ± 0.1 | Approximate Potency Compared to Fluasterone in Protecting Against DEX-induced Thymic and Splenic Involution ([1]; mice): about ⅙ or less
